Counter-ions that a name gives are not always drawn. Like-named read-outs stand apart in the source and are kept apart here.
Key:
Type in all cases: biochemical
TACE = target: T1, TACE (Homo sapiens, UniProt P78536); experiment: Procedure for Measuring TACE Inhibition; conditions: for inhibition at 1 µM: read-out: TACE % inhibition at 1 micromolar; for IC50: read-out: TACE IC 50
T1 construct: purchased Immunex
How it was run: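 Single-concentration screen: test compound at 1 µM final, 10-min room-temperature preincubation with 1 µg/mL protease in Tris pH 7.4 buffer containing glycerol. Initial rate from linear fluorescence increase (340/420 nm) over 10 min after adding 100 µM peptidyl substrate; significance versus control rate by Dunnett's test.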

MMP 9 = target: T2, MMP 9 (Homo sapiens, UniProt P14780); experiment: In Vitro Gelatinase Assay; conditions: for IC50: read-out: MMP 9 IC 50; for inhibition at 1 µM: read-out: MMP 9 % inhibition at 1 micromolar, 1 micromolar
T2 construct: from tissue; host or cells: human neutrophils
Procedure: The assay is based on the cleavage of the thiopeptide substrate ((Ac-Pro-Leu-Gly(2 mercapto-4 methyl-pentanoyl)-Leu-Gly-OEt), Bachem Bioscience) by the enzyme, gelatinase, releasing the substrate product which reacts colorimetrically with DTNB ((5,5'-dithio-bis(2-nitro-benzoic acid)). The enzyme activity is measured by the rate of the color increase. The thiopeptide substrate is made up fresh as a 20 mM stock in 100% DMSO and the DTNB is dissolved in 100% DMSO as a 100 mM stock and stored in dark at room temperature. Both the substrate and DTNB are diluted together to 1 mM with substrate buffer (50 mM HEPES pH 7.5, 5 mM CaCl2) before use. […] The increase in OD405 is plotted and the slope of the line is calculated which represents the reaction rate. The linearity of the reaction rate is confirmed (r^2 >0.85). The mean (x ± sem) of the control rate is calculated and compared for statistical significance (p <0.05) with drug-treated rates using Dunnett's multiple comparison test.

MMP 1 = target: T3, MMP 1 (Homo sapiens, UniProt P03956); experiment: In Vitro Collagenase Assay; conditions: for IC50: read-out: MMP 1 IC 50; for inhibition at 1 µM: read-out: MMP 1 % inhibition at 1 micromolar, 1 micromolar
T3 construct: human recombinant fibroblast collagenase (truncated, mw= 18,828, WAR, Radnor)
T3 sequence (P03956 100-269 limits assumed): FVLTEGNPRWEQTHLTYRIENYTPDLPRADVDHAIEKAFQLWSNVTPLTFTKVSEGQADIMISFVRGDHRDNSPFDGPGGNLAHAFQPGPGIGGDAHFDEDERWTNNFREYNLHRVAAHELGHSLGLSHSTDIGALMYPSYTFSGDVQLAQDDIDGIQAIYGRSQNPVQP
Procedure: The assay is based on the cleavage of a peptide substrate ((Dnp-Pro-Cha-Gly-Cys(Me)-His-Ala-Lys(NMa)-NH2), Peptide International, Inc.) by collagenase releasing the fluorescent NMa group which is quantitated on the fluorometer. Dnp quenches the NMa fluorescence in the intact substrate. […] Substrate is dissolved in methanol and stored frozen in 1 mM aliquots. […] For the assay, substrate is dissolved in HCBC buffer to a final concentration of 10 µM and collagenase to a final concentration of 5 nM. Compounds are dissolved in methanol, DMSO, or HCBC. The methanol and DMSO are diluted in HCBC to < 1.0%. Compounds are added to the 96 well plate containing enzyme and the reaction is started by the addition of substrate.
The slope of the line is calculated and represents the reaction rate.
The linearity of the reaction rate is confirmed (r^2 >0.85). The mean (x ± sem) of the control rate is calculated and compared for statistical significance (p <0.05) with drug-treated rates using Dunnett's multiple comparison test.

MMP 13 = MMP 13 (Homo sapiens, UniProt P45452); experiment: MMP 13 inhibition (IC50 / manual assay; method not described); conditions: read-out: MMP 13 IC 50
[1] = human recombinant fibroblast collagenase

T2 sequence (P14780 94-707): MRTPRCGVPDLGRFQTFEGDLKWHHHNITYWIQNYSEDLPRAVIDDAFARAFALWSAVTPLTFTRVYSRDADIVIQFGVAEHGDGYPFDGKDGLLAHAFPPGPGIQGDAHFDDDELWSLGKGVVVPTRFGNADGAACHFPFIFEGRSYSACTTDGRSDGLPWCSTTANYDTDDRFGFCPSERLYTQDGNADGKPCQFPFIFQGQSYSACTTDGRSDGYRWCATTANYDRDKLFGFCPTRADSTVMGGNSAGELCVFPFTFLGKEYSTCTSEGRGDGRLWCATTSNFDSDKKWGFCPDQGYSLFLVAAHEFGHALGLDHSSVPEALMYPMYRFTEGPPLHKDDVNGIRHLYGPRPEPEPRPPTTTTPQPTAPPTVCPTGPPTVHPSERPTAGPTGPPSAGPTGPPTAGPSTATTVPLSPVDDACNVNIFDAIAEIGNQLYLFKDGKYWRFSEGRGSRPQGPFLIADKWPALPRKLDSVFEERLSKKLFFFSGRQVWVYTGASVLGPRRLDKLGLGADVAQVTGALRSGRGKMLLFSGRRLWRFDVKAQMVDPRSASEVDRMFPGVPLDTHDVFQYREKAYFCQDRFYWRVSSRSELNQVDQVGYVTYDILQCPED
T1 sequence (P78536 215-824): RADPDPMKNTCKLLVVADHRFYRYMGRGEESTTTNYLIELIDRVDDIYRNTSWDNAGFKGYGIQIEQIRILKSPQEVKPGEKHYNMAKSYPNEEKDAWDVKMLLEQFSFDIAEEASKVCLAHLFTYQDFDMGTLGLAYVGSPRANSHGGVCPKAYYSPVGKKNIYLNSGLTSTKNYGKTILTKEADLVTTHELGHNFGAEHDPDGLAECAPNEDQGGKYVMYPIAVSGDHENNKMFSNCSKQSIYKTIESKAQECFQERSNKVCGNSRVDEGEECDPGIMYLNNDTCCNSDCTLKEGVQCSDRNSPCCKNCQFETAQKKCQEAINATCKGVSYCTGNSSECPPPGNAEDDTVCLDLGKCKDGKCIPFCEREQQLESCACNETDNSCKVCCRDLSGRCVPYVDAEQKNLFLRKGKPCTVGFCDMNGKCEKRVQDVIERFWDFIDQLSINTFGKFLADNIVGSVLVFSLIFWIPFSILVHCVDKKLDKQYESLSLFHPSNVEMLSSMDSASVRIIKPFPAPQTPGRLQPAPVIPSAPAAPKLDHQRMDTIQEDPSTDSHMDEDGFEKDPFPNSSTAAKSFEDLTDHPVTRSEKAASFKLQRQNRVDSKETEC

Row | inhibition at 1 µM (TACE) [%] | IC50 (MMP 9; human neutrophil gelatinase B) [nM] | IC50 (MMP 1; [1]) [nM] | Compound | other results
1 | 17.2 | 23 | 158 | COc1ccc(S(=O)(=O)C(C)(Cc2ccc(-c3ccccc3)cc2)C(=O)NO)cc1 (stereo not shown) [Example 14, 3-(Biphenyl-4-yl)-N-hydroxy-2-(4-methoxy-benzenesulfonyl)-2-methyl-propionamide] | –
2 | – | 10.3 | – | COc1ccc(S(=O)(=O)C2(C(=O)NO)CCN(Cc3ccc(Br)cc3)CC2)cc1 [Example 90, 1-(4-Bromo-benzyl)-4-(4-methoxy-benzenesulfonyl)-piperidine-4-carboxylic acid hydroxyamide] | –
3 | – | 0.54 | 25 | COc1ccc(S(=O)(=O)C(CC=C(C)C)(CC=C(C)C)C(=O)NO)cc1 [Example 79, 2-(4-Methoxy-benzenesulfonyl)-5-methyl-2-(3-methyl-but-2-enyl)-hex-4-enoic acid hydroxyamide] | IC50 (TACE): 805 nM
4 | 24.9 | – | – | CCCC(CCC)(C(=O)NO)S(=O)(=O)c1ccc(OC)cc1 [Example 59, 2-(4-methoxy-benzenesulfonyl)-2-propyl-pentanoic acid hydroxyamide] | inhibition at 1 µM (MMP 1; [1]): 30.2%
5 | 54.8 | – | – | CCCCC(C(=O)NO)S(=O)(=O)c1ccc(OC)cc1 (stereo not shown) [Example 10, 2-(4-Methoxy-benzenesulfonyl)-hexanoic acid hydroxyamide] | inhibition at 1 µM (MMP 1; [1]): 8%
6 | – | 13.3 | 1930 | COc1ccc(S(=O)(=O)C2(C(=O)NO)CCN(CCCc3ccccc3)CC2)cc1 [Example 91, 4-(4-methoxy-benzenesulfonyl)-1-(3-phenyl-propyl)-piperidine-4-carboxylic acid hydroxyamide] | IC50 (TACE): 503 nM
7 | – | – | – | CCCCCCCCCCCCC(C(=O)NO)S(=O)(=O)c1ccc(OC)cc1 (stereo not shown) [Example 11, 2-(4-Methoxy-benzenesulfonyl)-tetradecanoic hydroxyamide] | IC50 (TACE): 942 nM; inhibition at 1 µM (MMP 1; [1]): 18.8%
8 | 24.6 | 560 | – | CC#CCC(CC#CC)(C(=O)NO)S(=O)(=O)c1ccc(F)cc1 [Example 78, 2-(4-Fluoro-benzenesulfonyl)-2-but-2-ynyl-hex-4-ynoic acid hydroxyamide] | IC50 (MMP 13): 34 nM
9 | – | – | – | CCCCOc1ccc(S(=O)(=O)C2(C(=O)NO)CCN(Cc3ccccc3)CC2)cc1 [Example 98, 1-Benzyl-4-(4-butoxy-benzenesulfonyl)-piperidine-4-carboxylic acid hydroxyamide] | IC50 (MMP 13): 1.2 nM
10 | – | – | – | CCCCC(Cc1cccnc1)(C(=O)NO)S(=O)(=O)c1ccc(OC)cc1 (stereo not shown) [Example 70, 2-(4-Methoxy-benzenesulfonyl)-2-pyridin-3-ylmethyl-hexanoic acid hydroxyamide] | IC50 (TACE): 764 nM; inhibition at 1 µM (MMP 9; human neutrophil gelatinase B): 88.8%
11 | – | 138 | 2640 | COc1ccc(S(=O)(=O)C2(C(=O)NO)CCN(C3CCCCCCC3)CC2)cc1 [Example 94, 1-Cyclooctyl-4-(4-methoxy-benzenesulfonyl)-piperidine-4-carboxylic acid hydroxyamide] | –
12 | – | 50.9 | – | CC(C)=CCC(CC=C(C)C)(C(=O)NO)S(=O)(=O)c1ccc(C)cc1 [Example 42, 5-Methyl-2-(3-methyl-but-2-enyl)-2-(toluene-4-sulfonyl)-hex-4-enoic acid hydroxyamide] | IC50 (MMP 13): 6.2 nM
13 | – | – | – | COc1ccc(S(=O)(=O)C2(C(=O)NO)CCN(Cc3ccc(-c4ccccc4)cc3)CC2)cc1 [Example 88, 1-Biphenyl-4-ylmethyl-4-(4-methoxy-benzenesulfonyl)piperidine-4-carboxylic acid hydroxamide] | IC50 (MMP 9): 12.8 nM; IC50 (MMP 1): 1330 nM
14 | – | – | – | CCCCOc1ccc(S(=O)(=O)C2(C(=O)NO)CCN(Cc3ccc(OC)cc3)CC2)cc1 [Example 104, 4-(4-n-Butoxy-benzenesulfonyl)-1-(4-methoxy-benzyl)-piperidine-4-carboxylic acid hydroxyamide] | IC50 (TACE): 208 nM; IC50 (MMP 13): 1.4 nM
15 | 20.2 | – | 300 | C#CCC(CC#C)(C(=O)NO)S(=O)(=O)c1ccc(OC)cc1 [Example 73, 2-(4-Methoxy-benzenesulfonyl)-2-prop-2-ynyl-pent-4-ynoic acid hydroxyamide] | –
16 | 23.6 | 184 | – | COc1ccc(S(=O)(=O)C(Cc2ccccc2)(Cc2ccccc2)C(=O)NO)cc1 [Example 60, 2-benzyl-N-hydroxy-2-(4-methoxy-benzenesulfonyl)-3-phenyl-propionamide] | –
17 | 29.2 | 18.9 | 540 | COc1ccc(S(=O)(=O)C(C)(Cc2ccc(OCCN3CCCCCC3)cc2)C(=O)NO)cc1 (stereo not shown) [Example 18, 2-[4-(2-Azepan-1-yl-ethoxy)-benzyl]-2-(4-methoxy-benzenesulfonyl)-propionic acid hydroxyamide] | –
18 | 20.4 | – | – | CC(Cc1ccc(OCCN2CCCCC2)cc1)(C(=O)NO)S(=O)(=O)c1cccs1 (stereo not shown) [Example 45] | inhibition at 1 µM (MMP 9; human neutrophil gelatinase B): 48.6%; inhibition at 1 µM (MMP 1; [1]): 49%
19 | 41 | 8.9 | 239 | COc1ccc(S(=O)(=O)C(C)(Cc2ccc(OCCN3CCCCC3)cc2)C(=O)NO)cc1 (stereo not shown) [Example 17, N-Hydroxy-2-(4-methoxy-benzenesulfonyl)-2-methyl-3-[4-(2-piperidin-1-yl-ethoxy)-phenyl]-propionamide] | –
20 | – | 7.9 | 139 | COc1ccc(S(=O)(=O)C(C)(Cc2ccc3ccccc3c2)C(=O)NO)cc1 (stereo not shown) [Example 52, N-hydroxy-2-(4-methoxy-benzenesulfonyl)-2-methyl-3-naphthalen-2-yl-propionamide] | –
21 | 15.5 | – | 100 | COc1ccc(S(=O)(=O)C(C)(Cc2ccccc2)C(=O)NO)cc1 (stereo not shown) [Example 12, N-Hydroxy-2-(4-methoxy-benzenesulfonyl)-2-methyl-3-phenyl-propionamide] | –
22 | 15.8 | – | – | CCCCN1CCC(C(=O)NO)(S(=O)(=O)c2ccc(OC)cc2)CC1 [Example 93, 1-Butyl-4-(4-methoxy-benzenesulfonyl)-piperidine-4-carboxylic acid hydroxyamide] | inhibition at 1 µM (MMP 1; [1]): 56.3%
23 | 52.6 | – | – | COc1ccc(S(=O)(=O)C(C(=O)NO)C(C)C)cc1 (stereo not shown) [Example 53, N-Hydroxy-2-(4-methoxy-benzenesulfonyl)-3-methyl-butyramide] | inhibition at 1 µM (MMP 9; human neutrophil gelatinase B): 27.8%

Row | Compound | inhibition at 1 µM (TACE) [%] | IC50 (MMP 9; human neutrophil gelatinase B) [nM] | IC50 (MMP 1; [1]) [nM] | other results
24 | COc1ccc(S(=O)(=O)C(C)(Cc2ccc(OCCN3CCOCC3)cc2)C(=O)NO)cc1 (stereo not shown) [Example 82, 2-(4-methoxy-benzenesulfonyl)-2-methyl-3-[4-(2-morpholin-4-yl-ethoxy)-phenyl]-propionic hydroxyamide hydrochloride] | 34.5 | 19.4 | 238 | –
25 | CCCCOc1ccc(S(=O)(=O)C(C)(Cc2ccc(OCCN3CCCCC3)cc2)C(=O)NO)cc1 (stereo not shown) [Example 28, N-Hydroxy-2-(4-n-butoxy-benzenesulfonyl)-2-methyl-3-[4-(2-piperidin-1-yl-ethoxy)-phenyl]-propionamide] | 30.6 | – | – | IC50 (MMP 13): 2 nM
26 | CCOc1ccc(S(=O)(=O)C(C)(Cc2ccc(OCCN(CC)CC)cc2)C(=O)NO)cc1 (stereo not shown) [Example 25, N-Hydroxy-2-(4-ethoxy-benzenesulfonyl)-2-methyl-3-[4-(2-N,N-diethylamino-ethoxy)-phenyl]-propionamide] | – | 26.7 | – | IC50 (MMP 13): 8 nM
27 | CCCCOc1ccc(S(=O)(=O)C2(C(=O)NO)CCN(CCCOc3ccccc3)CC2)cc1 [Example 106, 4-(4-n-Butoxy-benzenesulfonyl)-1-(3-phenoxy-propyl)-piperidine-4-carboxylic acid hydroxyamide] | – | 5.1 | 3790 | IC50 (TACE): 631 nM
28 | CCCCOc1ccc(S(=O)(=O)C2(C(=O)NO)CCN(CCOc3ccccc3)CC2)cc1 [Example 108, 4-(4-n-Butoxy-benzenesulfonyl)-1-(2-phenoxy-ethyl)-piperidine-4-carboxylic acid hydroxyamide] | – | 5.4 | 2900 | IC50 (TACE): 270 nM
